Source: paper PMC3038857, “Using Nuclear Receptor Activity to Stratify Hepatocarcinogens” (PLoS ONE, 2011)

How the values were obtained:
Format in all cases: cell-based
[1] = biological target: T1, PPARA (peroxisome proliferator-activated receptor alpha) (Homo sapiens, UniProt Q07869); assay: ATG_PPARa_TRANS: Factorial reporter gene assay (HepG2); design: scale not given here; settings: scale not given, looks like -log10 of molar active concentration, 0 = no activity
T1 construct: expressed in transfected cells; host or cells: HepG2
T1 sequence (Q07869 1-468): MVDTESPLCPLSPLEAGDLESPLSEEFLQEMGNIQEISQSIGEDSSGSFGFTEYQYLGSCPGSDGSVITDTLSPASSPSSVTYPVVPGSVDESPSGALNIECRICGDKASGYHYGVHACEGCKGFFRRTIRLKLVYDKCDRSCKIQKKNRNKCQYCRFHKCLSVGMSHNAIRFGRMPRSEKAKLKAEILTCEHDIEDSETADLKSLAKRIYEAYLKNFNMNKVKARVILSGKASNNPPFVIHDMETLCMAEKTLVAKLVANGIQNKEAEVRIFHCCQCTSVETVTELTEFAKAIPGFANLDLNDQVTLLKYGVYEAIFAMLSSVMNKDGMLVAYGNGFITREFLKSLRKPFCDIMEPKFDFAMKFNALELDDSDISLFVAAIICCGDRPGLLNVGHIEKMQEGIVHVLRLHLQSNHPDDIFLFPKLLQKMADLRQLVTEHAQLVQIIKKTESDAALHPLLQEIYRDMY
Protocol: A multiple reporter transcription unit (MRTU) library consisting of 48 transcription factor binding sites was transfected into the HepG2 human liver hepatoma cell line. In addition to the cis-acting reporter genes (CIS), a modification of the approach was used to generate a trans-system (TRANS) with a mammalian one-hybrid assay consisting of an additional 25 MRTU library reporting the activity of nuclear receptor super-family members. […] These assays were performed by Attagene Inc. (Morrisville NC) under contract to EPA.
In addition to the cis-acting reporter genes (CIS), a modification of the approach was used to generate a trans-system (TRANS) with a mammalian one-hybrid assay consisting of an additional 25 MRTU library reporting the activity of nuclear receptor super-family members. […] Chemicals were then tested in the CIS and TRANS assays at seven concentrations starting at the MTC and followed by three-fold serial dilutions. These assays were performed by Attagene Inc. (Morrisville NC) under contract to EPA. Detailed description of the methods, data and analysis methods for this dataset will be presented in a separate publication.

[2] = test system: ABCB11; assay: CLZD_ABCB11: Change in expression of ABCB11 (primary human hepatocytes); settings: 24 hr
In short: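 Cultured primary human hepatocytes treated with chemicals for 6, 24 or 48 hr across five concentrations spanning 0.004-40 µM, then transcript level measured by quantitative nuclease protection in a multiplexed format.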

[3] = biological target: T2, CAR (NR1I3) (Homo sapiens, UniProt Q14994); assay: ATG_PBREM_CIS: Factorial reporter gene assay (HepG2); design: endogenous in cells; host or cells: HepG2; scale not given here
T2 sequence (Q14994 1-352): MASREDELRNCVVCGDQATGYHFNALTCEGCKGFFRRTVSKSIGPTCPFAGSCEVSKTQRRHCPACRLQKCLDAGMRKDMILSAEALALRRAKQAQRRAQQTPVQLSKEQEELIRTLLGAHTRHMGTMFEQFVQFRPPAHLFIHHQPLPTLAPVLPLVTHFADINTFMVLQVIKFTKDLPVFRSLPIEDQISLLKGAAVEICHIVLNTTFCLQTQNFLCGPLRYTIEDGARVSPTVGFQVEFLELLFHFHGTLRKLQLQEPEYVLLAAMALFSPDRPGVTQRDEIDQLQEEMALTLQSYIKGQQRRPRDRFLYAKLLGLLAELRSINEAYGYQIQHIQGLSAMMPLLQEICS
In short: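 Seven concentrations per chemical, three-fold dilutions down from the MTC, were tested in HepG2 hepatoma cells. Those cells carried a multiple reporter transcription unit library, read either as cis transcription-factor-site reporters or as a trans mammalian one-hybrid panel for nuclear receptors.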

[4] = scale not given, looks like -log10 of molar active concentration, 0 = no activity
[5] = HepG2, scale not given, looks like -log10 of molar active concentration, 0 = no activity

SMILES	ATG_PPARa_TRANS [1]	CLZD_ABCB11_24 [2, 4]	CLZD_ABCB11_24 [2]	ATG_PBREM_CIS ([3]; HepG2 reporter)	ATG_PBREM_CIS [3, 5]	ATG_PBREM_CIS ([3]; HepG2)
CC(C)N1C(=O)c2ccccc2NS1(=O)=O [r37]	0	0	–	–	–	–
CCc1nn(C)c(C(=O)NCc2ccc(C(C)(C)C)cc2)c1Cl [r291]	–	–	4.551	5.745	–	–
CCCCOCN(C(=O)CCl)c1c(CC)cccc1CC [r46]	0	0	–	–	0	–
COC(=O)c1ccccc1CS(=O)(=O)NC(=O)Nc1nc(OC)cc(OC)n1 [r33]	0	0	–	–	0	–
CNC(=O)Oc1cccc2ccccc12 [r52]	0	0	–	–	0	–
Nc1cnn(-c2ccccc2)c(=O)c1Cl [r56]	0	0	–	–	0	–
CC(C)(c1ccc(O)cc1)c1ccc(O)cc1 [r40]	0	0	–	–	0	–
Cc1c(COC(=O)C2C(/C=C(\Cl)C(F)(F)F)C2(C)C)cccc1-c1ccccc1 (centres unmarked) [r39]	0	0	–	–	0	–
CCCN(CCC)c1c([N+](=O)[O-])cc(C(F)(F)F)c(N)c1[N+](=O)[O-] [r252]	–	–	–	–	–	4.337
CCC(C)n1c(=O)[nH]c(C)c(Br)c1=O (centres unmarked) [r43]	0	0	–	–	0	–
COc1cc(Cl)c(OC)cc1Cl [r57]	0	0	–	–	–	–
COc1nc(C)nc(NC(=O)NS(=O)(=O)c2ccccc2Cl)n1 [r62]	0	0	–	–	0	–
CCOC(=O)C(Cl)Cc1cc(-n2nc(C)n(C(F)F)c2=O)c(F)cc1Cl (centres unmarked) [r54]	0	0	–	–	0	–
COc1ccc(-c2ccccc2)cc1NNC(=O)OC(C)C [r38]	0	0	–	–	0	–
N#Cc1cc(Br)c(O)c(Br)c1 [r44]	4.678	0	–	–	0	–
Cc1ccccc1CO[C@@H]1C[C@@]2(C(C)C)CC[C@]1(C)O2 [r64]	0	0	–	–	0	–
COc1nc(C)nc(NC(=O)NS(=O)(=O)c2ccccc2Cl)n1 [r63]	0	0	–	–	0	–
CC1=C(C(=O)Nc2ccccc2)SCCO1 [r53]	0	0	–	–	–	–
C#CCC1=C(C)[C@H](OC(=O)[C@H]2[C@H](C=C(C)C)C2(C)C)CC1=O [r249]	–	–	–	–	–	5.276
CCC(C)Nc1c([N+](=O)[O-])cc(C(C)(C)C)cc1[N+](=O)[O-] (centres unmarked) [r48]	0	0	–	–	–	–
CC(C)OC(=O)Nc1cccc(Cl)c1 [r59]	0	0	–	–	–	–
N#Cc1c(Cl)c(Cl)c(Cl)c(C#N)c1Cl [r58]	0	0	–	–	0	–
C=CCOC(=O)C(C)(C)OC(=O)c1cc(-n2c(=O)cc(C(F)(F)F)n(C)c2=O)ccc1Cl [r47]	0	0	–	–	0	–
CCSC(=O)N(CC(C)C)CC(C)C [r49]	0	0	–	–	0	–
CC(C)N1C(=O)N(c2ccccc2)CS/C1=N\C(C)(C)C [r45]	0	0	–	–	0	–
O=C1C2CC=CCC2C(=O)N1SC(Cl)(Cl)Cl (centres unmarked) [r51]	0	0	–	–	0	–
O=C(Nc1ccccc1-c1ccc(Cl)cc1)c1cccnc1Cl [r42]	0	0	–	–	0	–
OB(O)O [r41]	0	0	–	–	0	–
